Assay results published in ChEMBL document CHEMBL1201862, “PubChem BioAssay data set” (2004).
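Briefly, cells in 96-well plates were exposed to five compound concentrations for 48 h, and endpoints were estimated by linear interpolation. GI50 is the concentration that inhibits growth by half.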 Calls of active or inactive are those of the source. No stated cut-off is given here; in the data, active = GI50 up to about 1.1 µM and inactive = higher.

Key:
Assay in all cases: growth of human tumour cells (NCI), 48 h
[1] = system: 786-0
[2] = system: A549
[3] = system: ACHN
[4] = system: CAKI-1
[5] = system: CCRF-CEM
[6] = system: DLD-1
[7] = system: DMS-114
[8] = system: EKVX
[9] = system: HCC 2998
[10] = system: HCT-116
[11] = system: HCT-15
[12] = system: HL-60
[13] = system: HOP-18
[14] = system: HOP-62
[15] = system: HOP-92
[16] = system: HT-29
[17] = system: IGROV-1
[18] = system: K562
[19] = system: KM-20L2
[20] = system: KM12
[21] = system: LOX IMVI
[22] = system: LXFL 529
[23] = system: M14
[24] = system: MOLT-4
[25] = system: Malme-3M
[26] = system: NCI-H23
[27] = system: NCI-H460
[28] = system: NCI-H522
[29] = system: OVCAR-3
[30] = system: OVCAR-4
[31] = system: OVCAR-5
[32] = system: OVCAR-8
[33] = system: RPMI-8226
[34] = system: SF-268
[35] = system: SF-295
[36] = system: SF-539
[37] = system: SK-MEL-2
[38] = system: SK-OV-3
[39] = system: SNB-19
[40] = system: SNB-75
[41] = system: SNB-78
[42] = system: SR
[43] = system: SW-620
[44] = system: U-251
[45] = system: UACC-257
[46] = system: UACC-62
[47] = system: UO-31
[48] = system: XF498
[49] = system: A498
[50] = system: COLO 205
[51] = system: DMS-273
[52] = system: M19-MEL
[53] = system: RXF 393
[54] = system: RXF 631
[55] = system: SK-MEL-28
[56] = system: SK-MEL-5
[57] = system: SN12C
[58] = system: TK-10
[59] = system: NCI-H226
[60] = system: BT-549
[61] = system: DU-145
[62] = system: MCF7
[63] = system: MDA-MB-231
[64] = system: MDA-MB-435
[65] = system: NCI/ADR-RES
[66] = system: PC-3

Measured: GI50

COC(=O)/C=C(C)/C=C/c1cc(C(C)=O)c(C)o1
> 100 µM: [11]
inactive: [1] > 100 µM | [2] 66.7 µM | [3] > 100 µM | [4] > 100 µM | [5] > 100 µM | [6] 43.8 µM | [7] 93.3 µM | [8] 51.9 µM | [9] > 100 µM | [10] > 100 µM | [12] > 100 µM | [13] 46.9 µM | [14] > 100 µM | [15] 23.2 µM | [16] > 100 µM | [17] > 100 µM | [18] 62.1 µM | [19] > 100 µM | [20] > 100 µM | [21] > 100 µM | [22] 93.1 µM | [23] > 100 µM | [24] 62.5 µM | [25] > 100 µM | [26] > 100 µM | [27] > 100 µM | [28] > 100 µM | [29] > 100 µM | [30] 94.2 µM | [31] 78.7 µM | [32] > 100 µM | [33] 54.7 µM | [34] > 100 µM | [35] > 100 µM | [36] > 100 µM | [37] > 100 µM | [38] > 100 µM | [39] > 100 µM | [40] 68.4 µM | [41] > 100 µM | [42] > 100 µM | [43] > 100 µM | [44] > 100 µM | [45] > 100 µM | [46] 82 µM | [47] 86.9 µM | [48] > 100 µM

CC(=O)OC1C(CCl)OC(N=[N+]=[N-])C(OC(C)=O)C1OC(C)=O (stereo not given)
> 100 µM: [11]
inactive: [1] > 100 µM | [49] > 100 µM | [2] > 100 µM | [3] > 100 µM | [4] > 100 µM | [5] > 100 µM | [50] > 100 µM | [6] > 100 µM | [7] > 100 µM | [51] > 100 µM | [8] > 100 µM | [9] > 100 µM | [10] > 100 µM | [12] > 100 µM | [14] > 100 µM | [16] > 100 µM | [17] > 100 µM | [18] > 100 µM | [19] > 100 µM | [20] > 100 µM | [22] > 10 µM | [23] > 100 µM | [52] > 100 µM | [24] > 100 µM | [25] > 100 µM | [26] > 100 µM | [27] > 100 µM | [28] > 100 µM | [29] > 100 µM | [30] > 100 µM | [32] > 100 µM | [33] > 100 µM | [53] > 100 µM | [54] > 100 µM | [34] > 100 µM | [35] > 100 µM | [36] > 100 µM | [55] > 100 µM | [37] > 100 µM | [56] > 100 µM | [38] > 100 µM | [57] > 100 µM | [39] > 100 µM | [40] > 100 µM | [43] > 100 µM | [58] > 100 µM | [44] > 100 µM | [45] > 100 µM | [46] > 100 µM | [47] > 100 µM | [48] > 100 µM

CN(C)CC1CCCC/C1=N/O (stereo not given)
inactive: [1] > 100 µM | [49] > 100 µM | [2] > 100 µM | [3] > 100 µM | [4] > 100 µM | [5] > 100 µM | [50] > 100 µM | [6] > 100 µM | [7] > 100 µM | [51] > 100 µM | [8] > 100 µM | [9] > 100 µM | [10] > 100 µM | [12] > 100 µM | [13] > 100 µM | [14] > 100 µM | [15] > 100 µM | [16] > 100 µM | [17] > 100 µM | [18] > 100 µM | [19] > 100 µM | [20] > 100 µM | [21] > 100 µM | [22] > 100 µM | [23] > 100 µM | [52] > 100 µM | [24] > 100 µM | [25] > 100 µM | [59] > 100 µM | [26] > 100 µM | [27] > 100 µM | [28] > 100 µM | [29] > 100 µM | [30] > 100 µM | [31] > 100 µM | [32] > 100 µM | [33] > 100 µM | [53] > 100 µM | [54] > 100 µM | [34] > 100 µM | [35] > 100 µM | [36] > 100 µM | [55] > 100 µM | [37] > 100 µM | [56] > 100 µM | [38] > 100 µM | [57] > 100 µM | [40] > 100 µM | [41] > 100 µM | [43] > 100 µM | [58] > 100 µM | [44] > 100 µM | [45] > 100 µM | [46] > 100 µM | [47] > 100 µM
> 100 µM: [11]

Cc1ccc(C(O)(c2ccc(C)cc2)c2ccccn2)cc1
inactive: [1] > 100 µM | [49] > 100 µM | [2] 64.6 µM | [3] > 100 µM | [4] > 100 µM | [5] 51.5 µM | [50] > 100 µM | [6] > 100 µM | [7] > 100 µM | [51] > 100 µM | [8] 86.7 µM | [9] > 100 µM | [10] 68.9 µM | [13] > 100 µM | [14] > 100 µM | [16] 80.7 µM | [17] > 100 µM | [18] 71.6 µM | [19] > 100 µM | [20] > 10 µM | [21] > 100 µM | [23] > 100 µM | [52] > 100 µM | [25] > 100 µM | [59] > 100 µM | [26] 80.2 µM | [27] > 100 µM | [29] > 100 µM | [30] > 100 µM | [31] > 100 µM | [32] > 100 µM | [33] > 100 µM | [54] > 100 µM | [34] > 100 µM | [35] > 100 µM | [36] > 100 µM | [55] > 100 µM | [37] > 100 µM | [56] > 100 µM | [38] > 100 µM | [57] > 100 µM | [39] > 100 µM | [40] 30.9 µM | [41] > 100 µM | [43] > 100 µM | [58] 62.1 µM | [44] > 100 µM | [45] > 100 µM | [46] > 100 µM | [47] 38.3 µM
> 100 µM: [11]

COc1ccc2nc3ccccc3c(NCCCCN(C)CCCl)c2c1
active: [1] 0.0177 µM | [49] 0.0435 µM | [2] 0.0286 µM | [3] < 0.0174 µM | [60] < 0.01 µM | [4] 0.0284 µM | [5] 0.013 µM | [50] < 0.01 µM | [6] 0.0471 µM | [51] 0.0218 µM | [61] 0.0537 µM | [8] 0.393 µM | [9] 0.0893 µM | [10] 0.0199 µM | [12] 0.0188 µM | [14] 0.082 µM | [15] 0.0604 µM | [16] 0.0178 µM | [17] 0.0408 µM | [18] 0.0231 µM | [19] 0.0277 µM | [20] 0.0407 µM | [21] 0.0335 µM | [22] < 0.013 µM | [23] 0.0711 µM | [62] < 0.01 µM | [63] 0.144 µM | [64] 0.0783 µM | [24] < 0.01 µM | [25] 0.33 µM | [59] 0.0692 µM | [26] 0.0513 µM | [27] 0.014 µM | [28] < 0.0143 µM | [65] 0.0611 µM | [29] 0.0392 µM | [30] 0.0889 µM | [31] 0.186 µM | [32] 0.0254 µM | [66] 0.0569 µM | [33] < 0.01 µM | [53] 0.0914 µM | [54] < 0.0185 µM | [34] 0.0186 µM | [35] 0.0652 µM | [36] 0.0689 µM | [55] 0.367 µM | [37] 0.146 µM | [56] 0.0773 µM | [38] 0.0775 µM | [57] 0.0184 µM | [39] 0.191 µM | [40] 0.122 µM | [41] 0.0596 µM | [42] < 0.01 µM | [43] 0.0151 µM | [58] 0.638 µM | [44] 0.0344 µM | [45] 0.581 µM | [46] 0.0373 µM | [47] 0.107 µM | [48] 0.0369 µM
0.0185 µM: [11]
